# Measured values: patent US12227782B2, “Method for producing protein” (priority 2018, dated 2025)
# Test system: Trichoderma reesei X3AB1 strain
# Experiment: Test 1/Test 2: amount of protein produced (Bradford method) in culture supernatant
# Type: cell-based
# Experimental: Trichoderma reesei X3AB1 strain (J. Ind. Microbiol. Biotechnol., 2012, 174: 1-9; hereinafter, referred to as X3AB1 strain) was cultured in a cellulose-containing culture medium to produce a protein containing a cellulase. As preculture, 50 mL of a culture medium was added to a 500 mL flask, spores of X3AB1 strain were inoculated at 1×10^5 cells/mL, and shaking culture was performed at 220 rpm (PRXYg-98R from PRECI CO., LTD.) at 28° C. The culture medium composition was as follows: 1% glucose, 0.14% (NH4)2SO4, 0.2% KH2PO4, 0.03% CaCl2·2H2O, 0.03% MgSO4·7H2O, 0.1% Bacto Peptone (BD Difco), 0.05% Bacto Yeast extract (BD Difco), 0.1% TWEEN® 80 (polysorbate 80), 0.1% Trace element and 50 mM tartrate buffer (pH 4.0). The composition of the Trace element was as follows: 6 mg of H3BO3, 26 mg of (NH4)6Mo7O24·4H2O, 100 mg of FeCl3·6H2O, 40 mg of CuSO4·5H2O, 8 mg of MnCl2·4H2O and 200 mg of ZnCl2 which were diluted to 100 mL with distilled water.
# Main culture was performed after 2 days of preculture. […]
# The culture solutions obtained in Comparative Example 1 and Examples 1 and 2 were centrifuged. […] The concentration of protein in the supernatant was measured by the Bradford method. The protein concentration of the supernatant was calculated on the basis of a calibration curve with bovine γ-globulin as standard protein using Quick Start Protein Assay (BioRad) based on the Bradford method, and the protein concentration was defined as an amount of protein produced. […]
# For the culture solutions obtained from Comparative Examples 2 and 3 and Examples 3 to 6, the amount of protein produced was measured in the same manner as in Test 1. […]
structure (smiles),measurement,setting,value
N[C@@H]1O[C@H](CO)[C@@H](O)[C@H](O)[C@H]1O [β-D-glucopyranosylamine],increase of maximum amount of protein produced as compared to Comparative Example 1,"Example 1: 0.5% added to initial culture medium of main culture, maximum on day 3 of culture, 10% powder cellulose medium",≥ 20%
same,increase of maximum amount of protein produced as compared to Comparative Example 1,"Example 2: 8% aqueous solution fed 0.6 g/L initial culture medium/hr at 15-63 hr (total 0.2%), maximum on day 4 of culture",≥ 20%
same,protein productivity as the amount added in the culture increased,Examples 3 to 6: fed together with glucose (38% glucose/2% or 35% glucose/5% aqueous solution) versus 40% glucose feed (Comparative Examples 2 and 3),tended to be improved
